Experiments:
[1] = tested on: S. aureus 481; assay: MIC, hospital MRSA strain; format: cell-based, Staphylococcus aureus; conditions: for MIC: hospital MRSA S. aureus 481; for times more active than ciprofloxacin: S. aureus 481
Protocol: (§1) The antimicrobial activity of the compounds was tested on Gram-positive bacteria (Staphylococcus aureus NCTC 4163, Staphylococcus aureus ATCC 25923, Staphylococcus aureus ATCC 6538, Staphylococcus aureus ATCC 29213, Staphylococcus epidermidis ATCC 12228, Staphylococcus epidermidis ATCC 35984), Gram-negative rods (Escherichia coli ATCC 10538, Escherichia coli ATCC 25922, Pseudomonas aeruginosa ATCC 15442, Pseudomonas aeruginosa ATCC 27863) and yeasts (Candida albicans ATCC 10231, Candida albicans ATCC 90028, Candida parapsilosis ATCC 22019). Hospital methicillin-resistant strains of Staphylococcus aureus and Staphylococcus epidermidis were obtained from the collection of the Department of Pharmaceutical Microbiology, Medical University of Warsaw, Poland.
(§2) Antifungal activities were assessed using Mueller–Hinton agar + 2% glucose and 0.5 µg/mL methylene blue dye medium. Sterile filter paper discs (9 mm diameter, Whatman Number 3 chromatography paper) were dripped with tested compound solutions (in dimethylsulfoxide, DMSO) to load 400 μg of a given compound per disc. Dry discs were placed on the surface of appropriate agar medium. The results (diameter of the growth inhibition zone) were read after 18 h of incubation at 35 °C. Minimal inhibitory concentration (MIC) was tested by the twofold serial microdilution method (in 96-well microtiter plates) using Mueller–Hinton broth medium (Beckton Dickinson) for bacteria or RPMI-1640 medium for Candida species, according to CLSI guidelines. The stock solution of tested agent was prepared in DMSO and diluted in sterile water. […] The final inoculum of all studied microorganisms was 10^5 CFU/ mL^−1 (colony forming units per ml). Minimal inhibitory concentrations (the lowest concentration of a tested agent that prevents visible growth of a microorganism) were read after 18 h (bacteria) or 24 h (yeasts) of incubation at 35 °C.

[2] = tested on: S. aureus 537; assay: MIC, hospital MRSA strain; format: cell-based, Staphylococcus aureus; conditions: hospital MRSA S. aureus 537
Protocol: as §1, §2

[3] = tested on: S. aureus 585; assay: MIC, hospital MRSA strain; format: cell-based, Staphylococcus aureus; conditions: hospital MRSA S. aureus 585
Protocol: as §1, §2

[4] = tested on: S. aureus 522; assay: MIC, hospital MRSA strain; format: cell-based, Staphylococcus aureus; conditions: hospital MRSA S. aureus 522
Protocol: as §1, §2

[5] = tested on: S. aureus 497; assay: MIC, hospital MRSA strain; format: cell-based, Staphylococcus aureus; conditions: hospital MRSA S. aureus 497
Protocol: as §1, §2

[6] = tested on: S. aureus 496; assay: MIC, hospital MRSA strain; format: cell-based, Staphylococcus aureus; conditions: hospital MRSA S. aureus 496
Protocol: as §1, §2

[7] = tested on: S. aureus 573; assay: MIC, hospital MRSA strain; format: cell-based, Staphylococcus aureus; conditions: hospital MRSA S. aureus 573
Protocol: as §1, §2

[8] = tested on: S. aureus 495; assay: MIC, hospital MRSA strain; format: cell-based, Staphylococcus aureus; conditions: hospital MRSA S. aureus 495
Protocol: as §1, §2

[9] = tested on: S. aureus 514; assay: MIC, hospital MRSA strain; format: cell-based, Staphylococcus aureus; conditions: hospital MRSA S. aureus 514
Protocol: as §1, §2

[10] = tested on: S. aureus 572; assay: MIC, hospital MRSA strain; format: cell-based, Staphylococcus aureus; conditions: for MIC: hospital MRSA S. aureus 572; for times more active than ciprofloxacin: S. aureus 572
Protocol: as §1, §2

[11] = tested on: S. aureus 568; assay: MIC, hospital MRSA strain; format: cell-based, Staphylococcus aureus; conditions: hospital MRSA S. aureus 568
Protocol: as §1, §2

[12] = tested on: S. aureus 567; assay: MIC, hospital MRSA strain; format: cell-based, Staphylococcus aureus; conditions: hospital MRSA S. aureus 567
Protocol: as §1, §2

[13] = tested on: S. aureus 498; assay: MIC, hospital MRSA strain; format: cell-based, Staphylococcus aureus; conditions: hospital MRSA S. aureus 498
Protocol: as §1, §2

[14] = tested on: S. aureus 586; assay: MIC, hospital MRSA strain; format: cell-based, Staphylococcus aureus; conditions: hospital MRSA S. aureus 586
Protocol: as §1, §2

[15] = tested on: SW620 (human metastatic colon cancer); assay: MTT cytotoxicity assay, SW620; format: cell-based; conditions: SW620, 72 h
Protocol: The human primary (SW480), metastatic (SW620) colon cancer, metastatic prostate cancer (PC3) and human immortal keratinocyte (HaCaT) cell lines were purchased from the American Type Culture Collection (ATCC, Rockville, USA). The cells were cultured in medium according to protocols (MEM for SW480 and SW620, RPMI 1640 for PC3 and DMEM for HaCaT cells) supplemented with 10% fetal bovine serum (FBS), penicillin (100 U/mL) and streptomycin (100 μg/mL) and cultured in 37 °C/ 5% CO2 humidified incubator. The cells were cultured until appropriate confluence was achieved (80–90%). Next, they were harvested by treatment with 0.25% trypsin (Gibco Life Technologies, USA) and used for studies.
Cells without studied compounds in medium were used as a control.
The cell viability was assessed by determination of MTT salt (3-(4,5-dimethylthiazol-2-yl)-2,5-diphenyltetrazolium bromide) conversion by mitochondrial dehydrogenase. MTT assay was performed as previously described. Experiments were repeated three times. Cell viability was presented as a percentage of MTT reduction in the treated cells versus the control cells. Number of viable cells cultured without studied compounds was assumed to be 100%. Decreased relative MTT level means decreased cell viability.

[16] = tested on: hospital S. epidermidis (MRSE); assay: MIC, hospital S. epidermidis; format: cell-based, Staphylococcus epidermidis; conditions: for times more effective than the reference chemotherapeutic (ciprofloxacin): S. epidermidis 424, 471, 511, 515 and 431–433 isolates
Protocol: as §1, §2

[17] = tested on: Bacillus subtilis M45 (rec−); assay: Bacillus subtilis rec-assay, M45; format: cell-based; conditions: B. subtilis M45; 256 µg per disc (NOQ 2 µg per disc)
Protocol: DNA-damaging activity of compounds was tested by rec-assay using two genetically modified Bacillus subtilis strains: M45 (rec^−) and H17 (rec^+). Tested compounds were dissolved in DMSO, and 10 µL of each solution was dripped onto sterile cotton discs (Rotilabo) to load 256 µg of a given compound per 9 mm disc. Discs were placed on the surface nutrient agar plates (Difco), inoculated with 100 µL of bacterial overnight culture and incubated […] at 35 °C. After incubation, the growth inhibition zones were measured. […] Results of the genotoxicity test were estimated after 18 h of incubation at 35 °C by comparing the diameter of the inhibition zone on the B. subtilis M45 (rec^−) strain with that on the B. subtilis H17 (rec^+) strain.

O=[N+]([O-])c1cc([N+]2=C(Nc3ccccc3Br)[S][Cu-2]23[S]C(Nc2ccccc2Br)=[N+]3c2ccc(Cl)c([N+](=O)[O-])c2)ccc1Cl [Compound 1, Copper (II) complex with 1-(2-bromophenyl)-3-(4-chloro-3-nitrophenyl)thiourea]
MIC [1]: 8 µg/mL
MIC [2]: 8 µg/mL
MIC [3]: 8 µg/mL
MIC [4]: 8 µg/mL
MIC [5]: 8 µg/mL
MIC [6]: 8 µg/mL
MIC [7]: 8 µg/mL
MIC [8]: 8 µg/mL
MIC [9]: 8 µg/mL
MIC [10]: 8 µg/mL
MIC [11]: 8 µg/mL
MIC [12]: 8 µg/mL
MIC [13]: 8 µg/mL
MIC [14]: 4 µg/mL
IC50 [15]: 3.3 ± 0.2 µM
times more effective than the reference chemotherapeutic (ciprofloxacin) [16]: 2–16 times
inhibition zone diameter [17]: 12 mm

O=[N+]([O-])c1cc([N+]2=C(Nc3cccc(Br)c3)[S][Cu-2]23[S]C(Nc2cccc(Br)c2)=[N+]3c2ccc(Cl)c([N+](=O)[O-])c2)ccc1Cl [Compound 2, Copper (II) complex with 1-(3-bromophenyl)-3-(4-chloro-3-nitrophenyl)thiourea]
MIC [1]: 8 µg/mL
MIC [2]: 8 µg/mL
MIC [3]: 8 µg/mL
MIC [4]: 8 µg/mL
MIC [5]: 8 µg/mL
MIC [6]: 8 µg/mL
MIC [7]: 8 µg/mL
MIC [8]: 8 µg/mL
MIC [9]: 8 µg/mL
MIC [10]: 8 µg/mL
MIC [11]: 8 µg/mL
MIC [12]: 8 µg/mL
MIC [13]: 8 µg/mL
MIC [14]: 8 µg/mL
IC50 [15]: 22.3 ± 1.8 µM
times more effective than the reference chemotherapeutic (ciprofloxacin) [16]: 2–16 times
inhibition zone diameter [17]: 19 mm

O=[N+]([O-])c1cc([N+]2=C(Nc3ccc(Br)cc3)[S][Cu-2]23[S]C(Nc2ccc(Br)cc2)=[N+]3c2ccc(Cl)c([N+](=O)[O-])c2)ccc1Cl [Compound 3, Copper (II) complex with 1-(4-bromophenyl)-3-(4-chloro-3-nitrophenyl)thiourea]
times more active than ciprofloxacin [1]: 64 times
MIC [1]: 4 µg/mL
MIC [2]: 4 µg/mL
MIC [3]: 4 µg/mL
MIC [4]: 4 µg/mL
MIC [5]: 4 µg/mL
MIC [6]: 4 µg/mL
MIC [7]: 4 µg/mL
MIC [8]: 4 µg/mL
MIC [9]: 4 µg/mL
times more active than ciprofloxacin [10]: 64 times
MIC [10]: 4 µg/mL
MIC [11]: 4 µg/mL
MIC [12]: 4 µg/mL
MIC [13]: 4 µg/mL
MIC [14]: 4 µg/mL
IC50 [15]: 19.2 ± 2.3 µM
MIC ([16]; most of hospital S. epidermidis species): 4 to 8 µg/mL
inhibition zone diameter [17]: 15 mm

O=[N+]([O-])c1cc([N+]2=C(Nc3ccc(F)c(Cl)c3)[S][Cu-2]23[S]C(Nc2ccc(F)c(Cl)c2)=[N+]3c2ccc(Cl)c([N+](=O)[O-])c2)ccc1Cl [Compound 4, Copper (II) complex with 1-(3-chloro-4-fluorophenyl)-3-(4-chloro-3-nitrophenyl)thiourea]
times more active than ciprofloxacin [1]: 64 times
MIC [1]: 4 µg/mL
MIC [2]: 4 µg/mL
MIC [3]: 4 µg/mL
MIC [4]: 4 µg/mL
MIC [5]: 8 µg/mL
MIC [6]: 8 µg/mL
MIC [7]: 4 µg/mL
MIC [8]: 4 µg/mL
MIC [9]: 4 µg/mL
times more active than ciprofloxacin [10]: 64 times
MIC [10]: 4 µg/mL
MIC [11]: 4 µg/mL
MIC [12]: 4 µg/mL
MIC [13]: 4 µg/mL
MIC [14]: 4 µg/mL
IC50 [15]: 21.6 ± 2.9 µM
times more effective than the reference chemotherapeutic (ciprofloxacin) [16]: 2–16 times
inhibition zone diameter [17]: 18 mm

O=[N+]([O-])c1cc([N+]2=C(Nc3ccc(Cl)c(Cl)c3)[S][Cu-2]23[S]C(Nc2ccc(Cl)c(Cl)c2)=[N+]3c2ccc(Cl)c([N+](=O)[O-])c2)ccc1Cl [Compound 5, Copper (II) complex with 1-(4-chloro-3-nitrophenyl)-3-(3,4-dichlorophenyl)thiourea]
MIC [1]: 16 µg/mL
MIC [2]: 16 µg/mL
MIC [3]: 16 µg/mL
MIC [4]: 16 µg/mL
MIC [5]: 16 µg/mL
MIC [6]: 32 µg/mL
MIC [7]: 16 µg/mL
MIC [8]: 16 µg/mL
MIC [9]: 32 µg/mL
MIC [10]: 16 µg/mL
MIC [11]: 16 µg/mL
MIC [12]: 16 µg/mL
MIC [13]: 16 µg/mL
MIC [14]: 16 µg/mL
IC50 [15]: 10.8 ± 2.6 µM
inhibition zone diameter [17]: 18 mm

O=[N+]([O-])c1cc(NC2=[N+](c3ccc(Cl)c([N+](=O)[O-])c3)[Cu-2]3([S]2)[S]C(Nc2ccc(Cl)c([N+](=O)[O-])c2)=[N+]3c2ccc(Cl)c([N+](=O)[O-])c2)ccc1Cl [Compound 6, Copper (II) complex with 1,3-bis(4-chloro-3-nitrophenyl)thiourea]
MIC [1]: 32 µg/mL
MIC [2]: 32 µg/mL
MIC [3]: 32 µg/mL
MIC [4]: 32 µg/mL
MIC [5]: 32 µg/mL
MIC [6]: 32 µg/mL
MIC [7]: 32 µg/mL
MIC [8]: 32 µg/mL
MIC [9]: 32 µg/mL
MIC [10]: 32 µg/mL
MIC [11]: 32 µg/mL
MIC [12]: 32 µg/mL
MIC [13]: 32 µg/mL
MIC [14]: 32 µg/mL
IC50 [15]: 21.5 ± 1.4 µM
inhibition zone diameter [17]: 15 mm

O=[N+]([O-])c1cc([N+]2=C(Nc3ccccc3F)[S][Cu-2]23[S]C(Nc2ccccc2F)=[N+]3c2ccc(Cl)c([N+](=O)[O-])c2)ccc1Cl [Compound 7, Copper (II) complex with 1-(2-fluorophenyl)-3-(4-chloro-3-nitrophenyl)thiourea]
times more active than ciprofloxacin [1]: 64 times
MIC [1]: 4 µg/mL
MIC [2]: 8 µg/mL
MIC [3]: 8 µg/mL
MIC [4]: 8 µg/mL
MIC [5]: 8 µg/mL
MIC [6]: 8 µg/mL
MIC [7]: 8 µg/mL
MIC [8]: 8 µg/mL
MIC [9]: 8 µg/mL
times more active than ciprofloxacin [10]: 64 times
MIC [10]: 4 µg/mL
MIC [11]: 8 µg/mL
MIC [12]: 4 µg/mL
MIC [13]: 4 µg/mL
MIC [14]: 8 µg/mL
IC50 [15]: 9.1 ± 0.8 µM
times more effective than the reference chemotherapeutic (ciprofloxacin) [16]: 2–16 times
inhibition zone diameter [17]: 18 mm

Reference: article PMC8584173, “The Cytotoxic Effect of Copper (II) Complexes with Halogenated 1,3-Disubstituted Arylthioureas on Cancer and Bacterial Cells” (International Journal of Molecular Sciences, 2021)
